Structures are written as SMILES. Read-outs that look alike come from different tables or passages of the source.

Data set [1] addresses CDK2/cyclin E (Homo sapiens (Human), UniProt P24941). In words: Kinase assay CDK2/cyclin E. It is filed as biochemical. The settings on record: for IC50: read-out: Kinase inhibition CDK2/cyclin E IC50; for A × B: comparative in vitro efficacy; for B: IC50 CDK2 roscovitine/IC50 CDK2 compound: ratio to roscovitine.
Method: (§3) Recombinant cyclin D1 was expressed in E. coli. […] Reactions were stopped on ice, followed by filtration through p81 filterplates or GF/C filterplates (for CDK4) (Whatman Polyfiltronics, Kent, UK), except for CDK7 where, after stopping reaction on ice, 10 μL of 10 mg/mL avidin was added to each well and further incubated for 10 min followed by filtration as per CDK2 assay. After washing 3 times with 75 mM aq orthophosphoric acid, plates were dried, scintillant added and incorporated radioactivity measured in a scintillation counter (TopCount, Packard Instruments, Pangbourne, Berks, UK). Compounds for kinase assay were made up as 10 mM stocks in DMSO and diluted into 10% DMSO in assay buffer.
In data set [2] the target is CDK1/cyclin B (Homo sapiens (Human), UniProt P06493). In words: Kinase assay CDK1/cyclin B. It is filed as biochemical. The settings on record: read-out: Kinase inhibition CDK1/cyclin B IC50.
Chain of CDK1/cyclin B (P06493 whole entry): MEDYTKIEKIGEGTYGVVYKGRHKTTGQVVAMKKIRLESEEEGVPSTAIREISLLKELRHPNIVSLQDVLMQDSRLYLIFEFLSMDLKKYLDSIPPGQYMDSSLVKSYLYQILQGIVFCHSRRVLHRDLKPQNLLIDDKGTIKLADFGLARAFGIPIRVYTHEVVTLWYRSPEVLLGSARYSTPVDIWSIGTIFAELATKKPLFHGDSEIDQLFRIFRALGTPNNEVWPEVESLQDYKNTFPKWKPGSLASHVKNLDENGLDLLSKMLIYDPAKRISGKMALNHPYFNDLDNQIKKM
Chain of CDK1/cyclin B (P14635 whole entry partner): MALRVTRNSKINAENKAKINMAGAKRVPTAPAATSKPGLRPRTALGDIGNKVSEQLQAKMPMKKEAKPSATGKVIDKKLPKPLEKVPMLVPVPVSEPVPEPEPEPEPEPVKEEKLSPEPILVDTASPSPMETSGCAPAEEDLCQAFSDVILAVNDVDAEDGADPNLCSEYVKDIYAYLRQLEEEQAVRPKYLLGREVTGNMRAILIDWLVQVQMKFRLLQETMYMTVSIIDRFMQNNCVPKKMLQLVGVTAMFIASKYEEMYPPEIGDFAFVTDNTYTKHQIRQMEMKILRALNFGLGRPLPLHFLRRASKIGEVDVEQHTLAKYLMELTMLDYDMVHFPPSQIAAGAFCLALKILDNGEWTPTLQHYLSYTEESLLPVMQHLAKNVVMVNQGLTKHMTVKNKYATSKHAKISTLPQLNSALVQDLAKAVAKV
Method: as §3
Data set [3] concerns the target CDK7/cyclin H (Homo sapiens (Human), UniProt P50613). In words: Kinase assay CDK7/cyclin H. It is filed as biochemical. Particulars: read-out: Kinase inhibition CDK7/cyclin H IC50.
Method: Reactions were stopped on ice, followed by filtration through p81 filterplates or GF/C filterplates (for CDK4) (Whatman Polyfiltronics, Kent, UK), except for CDK7 where, after stopping reaction on ice, 10 μL of 10 mg/mL avidin was added to each well and further incubated for 10 min followed by filtration as per CDK2 assay. After washing 3 times with 75 mM aq orthophosphoric acid, plates were dried, scintillant added and incorporated radioactivity measured in a scintillation counter (TopCount, Packard Instruments, Pangbourne, Berks, UK). Compounds for kinase assay were made up as 10 mM stocks in DMSO and diluted into 10% DMSO in assay buffer.
The subject of data set [4] is Human tumour cell lines: A549, HT29, Saos-2. In words: 72-h MTT cytotoxicity assay, tumour cell lines A549, HT29, Saos-2. The settings on record: for IC50: 72 h, read-out: In vitro anti-proliferative activity (72-h MTT IC50), Human tumour cell lines: A549, HT29, Saos-2; for C: IC50 cytotox. roscovitine/IC50 cytotox. compound: ratio to roscovitine. It is filed as cell-based. How it is done:
(§1) In short: cells were seeded into 96-well plates according to doubling time and incubated overnight at 37° C. Test compounds were made up in DMSO and a ⅓ dilution series prepared in 100 μL cell media, added to cells (in triplicates) and incubated for 72 ho at 37° C. MTT was made up as a stock of 5 mg/mL in cell media and filter-sterilised. Media was removed from cells followed by a wash with 200 μL PBS. MTT solution was then added at 20 μL per well and incubated in the dark at 37° C. for 4 h. MTT solution was removed and cells again washed with 200 μL PBS. MTT dye was solubilised with 200 μL per well of DMSO with agitation.
Background: Tetrazolium dyes change colour on reduction, which living cells bring about.

In data set [5] the target is CDK4/cyclin D1 (Homo sapiens (Human), UniProt P11802). The settings on record: read-out: Kinase inhibition CDK4/cyclin D1 IC50.
Chain of CDK4/cyclin D1 (P11802 whole entry): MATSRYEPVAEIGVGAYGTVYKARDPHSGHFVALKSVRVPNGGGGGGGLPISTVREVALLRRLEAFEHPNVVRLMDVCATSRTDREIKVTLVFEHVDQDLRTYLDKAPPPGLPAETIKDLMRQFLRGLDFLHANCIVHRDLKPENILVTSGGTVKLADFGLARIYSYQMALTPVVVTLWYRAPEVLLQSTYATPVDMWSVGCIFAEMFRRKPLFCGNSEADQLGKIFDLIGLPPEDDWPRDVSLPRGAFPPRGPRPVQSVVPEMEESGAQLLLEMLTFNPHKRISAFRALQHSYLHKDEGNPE
Chain of CDK4/cyclin D1 (P24385 whole entry partner): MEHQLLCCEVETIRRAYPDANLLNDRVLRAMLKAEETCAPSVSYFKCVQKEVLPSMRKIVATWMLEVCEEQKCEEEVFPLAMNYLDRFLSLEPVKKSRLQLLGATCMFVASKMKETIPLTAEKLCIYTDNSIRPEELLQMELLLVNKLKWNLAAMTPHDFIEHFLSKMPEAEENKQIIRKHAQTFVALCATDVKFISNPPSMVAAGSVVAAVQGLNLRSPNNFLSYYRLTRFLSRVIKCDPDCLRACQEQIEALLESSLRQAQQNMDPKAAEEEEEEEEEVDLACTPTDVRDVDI
Method: as §3
The target in data set [6] is cyclic AMP-dependent kinase (PKA) catalytic subunit (Homo sapiens (Human), UniProt P17612). In words: Kinase assay PKA. The settings on record: read-out: Kinase inhibition PKA IC50.
Method: as §3
Data set [7] concerns the target ERK-2 (Homo sapiens (Human), UniProt P28482). In words: Kinase assay ERK-2. The settings on record: read-out: Kinase inhibition ERK2 IC50.
Method: as §3
For data set [8] the following is noted: 10 μM.
Method: (§4) Calibration curves were prepared at 0, 1, and 10 μM in microsomes pre-incubated for 30 min and these were also treated with methanol containing olomoucine. All samples were then centrifuged and the supernatants analysed by liquid chromatography-mass spectrometry.
(§5) The chromatography column was a Supelco LC-ABZ, 50×4.6 mm, 5 μm zwitterionic column (Supelco Inc., Supelco Park, Bellefonte, Pa., USA). Gradient eluants consisted of methanol (A) and 0.1% formic acid in water (B). […] The flow rate was 1 mL/min throughout. […] Eluant from the detector passed, without splitting, into a Thernoquest LCQ ion trap mass spectrometer fitted with an electrospray source operated in positive mode. Mass spectrometer conditions were sheath gas 80, auxiliary gas 20 (both arbitrary units), capillary voltage 4 to 4.5 kV and heated capillary temperature 250 to 280° C. The mass range was 50-750. Scan time was controlled by the ion trap which was set to a maximum ion injection time of 200 ms or the time required to inject 2×10^8 ions; for each scan the system automatically used whichever time was reached first.
(§6) The peak area ration (test compound/internal standard) of the test incubation was then compared with the peak area ratios obtained fro the calibration curve of the test compound. From these values the concentration of test compound remaining after 30 min microsomal protein incubation was determined.
In data set [9] the test system is A549. The data set can be described thus: 72-h MTT assay A549. It is filed as cell-based. Particulars: Homo sapiens, read-out: 72-h MTT IC50, A549, lung carcinoma. How it is done:
as §1
(§2) Representative compounds of this invention were examined for their anti-proliferative effect against human tumour cell lines and immortalized non-transformed human cell lines (“normal” cell lines).

The subject of data set [10] is HeLa. In words: 72-h MTT assay HeLa. It is filed as cell-based. The settings on record: Homo sapiens, read-out: 72-h MTT IC50, cervical adenocarcinoma. The procedure:
as §1, §2

In data set [11] the test system is HT-29. The data set can be described thus: 72-h MTT assay HT-29. It is filed as cell-based. Particulars: Homo sapiens, read-out: 72-h MTT IC50, HT-29, colorectal adenocarcinoma. The procedure: as §1, §2
For data set [12], the system named is MCF7. The data set can be described thus: 72-h MTT assay MCF7. The settings on record: Homo sapiens, read-out: 72-h MTT IC50, MCF7, mammary adenocarcinoma. It is filed as cell-based. The procedure:
as §1, §2

Data set [13] has as its system Saos-2. In words: 72-h MTT assay Saos-2. It is filed as cell-based. The settings on record: Homo sapiens, read-out: 72-h MTT IC50, Saos-2, osteosarcoma. How it is done:
as §1, §2

The test system of data set [14] is Hs27. The data set can be described thus: 72-h MTT assay Hs27. It is filed as cell-based. Particulars: Homo sapiens, read-out: 72-h MTT IC50, Hs27, normal foreskin fibroblast. The procedure: as §1, §2
For data set [15], the system named is IMR90. The data set can be described thus: 72-h MTT assay IMR90. It is filed as cell-based. The settings on record: Homo sapiens, IMR-90, 72 h, read-out: 72-h MTT IC50; IMR90, normal embryo lung fibroblast. The procedure:
as §1, §2

Data set [16] concerns WI38. The data set can be described thus: 72-h MTT assay WI38. Particulars: Homo sapiens, WI-38, 72 h, read-out: 72-h MTT IC50; WI38, normal foetal lung fibroblast. It is filed as cell-based. How it is done: as §1, §2
In data set [17] the test system is cancer cell lines. In words: 72-h MTT assay, mean of cancer cell lines. It is filed as cell-based. Particulars: Homo sapiens, read-out: 72-h MTT IC50. How it is done: as §1, §2
Data set [18] deals with normal cell lines. The data set can be described thus: 72-h MTT assay, mean of normal cell lines. It is filed as cell-based. The settings on record: Homo sapiens, read-out: 72-h MTT IC50. How it is done: as §1, §2
Data set [19] can be described thus: Comparative in vitro metabolism assay (microsomal incubation).
Method: as §4, §5, §6

Chain of CDK7/cyclin H (P50613 whole entry): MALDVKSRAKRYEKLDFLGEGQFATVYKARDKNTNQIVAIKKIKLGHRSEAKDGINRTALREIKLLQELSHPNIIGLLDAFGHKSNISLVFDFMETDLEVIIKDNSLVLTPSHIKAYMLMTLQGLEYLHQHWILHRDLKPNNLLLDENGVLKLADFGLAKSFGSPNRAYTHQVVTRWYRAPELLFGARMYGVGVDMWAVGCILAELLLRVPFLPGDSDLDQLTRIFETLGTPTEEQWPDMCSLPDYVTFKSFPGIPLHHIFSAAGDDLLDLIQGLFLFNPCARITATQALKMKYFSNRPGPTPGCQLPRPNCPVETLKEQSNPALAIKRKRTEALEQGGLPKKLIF
Chain of CDK7/cyclin H (P51946 whole entry partner): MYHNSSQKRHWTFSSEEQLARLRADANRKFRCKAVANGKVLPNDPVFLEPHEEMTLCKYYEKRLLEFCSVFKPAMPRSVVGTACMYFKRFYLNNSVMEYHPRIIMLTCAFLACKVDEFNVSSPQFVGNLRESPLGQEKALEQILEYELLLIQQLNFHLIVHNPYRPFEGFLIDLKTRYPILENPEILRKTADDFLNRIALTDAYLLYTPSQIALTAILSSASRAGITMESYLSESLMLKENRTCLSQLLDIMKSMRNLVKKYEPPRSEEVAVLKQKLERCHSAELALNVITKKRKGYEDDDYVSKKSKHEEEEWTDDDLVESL
Chain of ERK-2 (P28482 whole entry, species assumed): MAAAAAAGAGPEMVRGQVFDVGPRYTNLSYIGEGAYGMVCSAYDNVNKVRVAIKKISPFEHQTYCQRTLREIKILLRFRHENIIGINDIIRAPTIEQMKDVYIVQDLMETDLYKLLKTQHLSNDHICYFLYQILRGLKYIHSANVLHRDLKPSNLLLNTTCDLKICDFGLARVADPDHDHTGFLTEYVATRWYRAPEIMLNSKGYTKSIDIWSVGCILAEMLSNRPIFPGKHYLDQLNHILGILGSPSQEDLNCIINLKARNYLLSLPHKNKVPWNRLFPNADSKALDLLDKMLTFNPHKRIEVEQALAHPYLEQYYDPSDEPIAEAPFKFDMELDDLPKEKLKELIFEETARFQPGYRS

As to `CC[C@@H](Nc1nc(NCc2cccnc2)c2ncn(C(C)C)c2n1)C(O)C(C)(C)C` (mixture of isomers) [(3RS,4R)-4-{9-Isopropyl-6-[(pyridin-3-ylmethyl)-amino]-9H-purin-2-ylamino}-2,2-dimethyl-hexan-3-ol], the IC50 in [1] was 1 µM; in [2] it was 23 µM; in [3], 1.6 µM; in [4], 19 µM; in data set [5], 24 µM; in data set [6], over 200 µM. In data set [7], the IC50 came out at 51 µM.

In the case of `CC[C@@H](Nc1nc(NCc2cccnc2)c2ncn(C(C)C)c2n1)C(O)C(C)C` (mixture of isomers) [(3RS,4R)-4-{9-Isopropyl-6-[(pyridin-3-ylmethyl)-amino]-9H-purin-2-ylamino}-2-methyl-hexan-3-ol], the IC50 turned out to be 0.69 µM in data set [1]; 20 µM in [2]; 2.2 µM in [3]; 28 µM in data set [4]; 21 µM in data set [5]; 200 µM in [6]. Further, the IC50 in data set [7] came to 111 µM.

For the molecule `CCC(O)[C@@H](CC)Nc1nc(NCc2cccnc2)c2ncn(C(C)C)c2n1` (mixture of isomers) [(3RS,4R)-4-{9-Isopropyl-6-[(pyridin-3-ylmethyl)-amino]-9H-purin-2-ylamino}-hexan-3-ol], the “A × B” value in data set [1] is recorded as 1.0. Further, in [1], the “B: IC50 CDK2 roscovitine/IC50 CDK2 compound” value is on record as 0.5. The IC50 was 0.22 µM in data set [1]; 12 µM in data set [2]; 1.1 µM in [3]; 10 µM in [4]; 25 µM in data set [5]; over 200 µM in data set [6]. Besides, in [7], the IC50 came to 37 µM. The “C: IC50 cytotox. roscovitine/IC50 cytotox. compound” value in [4] is listed as 1.1. Further, the “% Drug after 30 min. microsomal incubation” value (from here on “% Drug”) in data set [8] is 70%.

Turning to `CC[C@H](Nc1nc(NCc2cccnc2)c2ncn(C(C)C)c2n1)C(O)C(C)(C)C` (mixture of isomers) [(3RS,4S)-4-{9-Isopropyl-6-[(pyridin-3-ylmethyl)-amino]-9H-purin-2-ylamino}-2,2-dimethyl-hexan-3-ol], in data set [1], the “A × B” value was 0.4. In addition, the “B: IC50 CDK2 roscovitine/IC50 CDK2 compound” value in data set [1] was 0.3. Also, the IC50 in data set [1] was 0.39 µM; in data set [2], 21 µM; in data set [3], 3.5 µM; in [4], 15 µM; in data set [5], 13 µM; in data set [6] it was over 200 µM. Moreover, the IC50 in data set [7] was found to be 23 µM. In addition, in [4], the “C: IC50 cytotox. roscovitine/IC50 cytotox. compound” value is recorded as 0.8. Moreover, the “% Drug” value in data set [8] was 50%.

Turning to `CC[C@H](Nc1nc(NCc2cccnc2)c2ncn(C(C)C)c2n1)C(O)C(C)C` (mixture of isomers) [(3RS,4S)-4-{9-Isopropyl-6-[(pyridin-3-ylmethyl)-amino]-9H-purin-2-ylamino}-2-methyl-hexan-3-ol], the IC50 in [1] was 1.1 µM; in data set [2], 22 µM; in data set [3], 3.5 µM; in [4] it was 19 µM; in [5], 31 µM; in data set [6], over 200 µM. For the same molecule, the IC50 in data set [7] was 67 µM.

Regarding `CCC(O)[C@H](CC)Nc1nc(NCc2cccnc2)c2ncn(C(C)C)c2n1` (mixture of isomers) [(3RS,4S)-4-{9-Isopropyl-6-[(pyridin-3-ylmethyl)-amino]-9H-purin-2-ylamino}-hexan-3-ol], the “A × B” value in data set [1] turned out to be 2.1. Besides, the “B: IC50 CDK2 roscovitine/IC50 CDK2 compound” value in data set [1] came out at 1.0. The IC50 in [1] was 0.11 µM; in data set [2], 13 µM; in data set [3], 1.5 µM; in data set [4] it was 5.5 µM; in data set [5] it was 11 µM; in [6], over 200 µM. Also, in data set [7], the IC50 turned out to be 17 µM. Moreover, the “C: IC50 cytotox. roscovitine/IC50 cytotox. compound” value in [4] was 2.1. Besides, the “% Drug” value in data set [8] is recorded as 73%.

Take `CC[C@H](Nc1nc(NCc2cccnc2)c2ncn(C(C)C)c2n1)[C@@H](C)O` [(2R3S)-3-{9-Isopropyl-6-[(pyridin-3-ylmethyl)-amino]-9H-purin-2-ylamino}-pentan-2-ol]: the “A × B” value in [1] came out at 7.5. For the same molecule, the IC50 came to 2.2 µM in [2]; 0.8 µM in data set [4]; 0.9 ± 0.1 µM in data set [9]; 1.4 ± 0.2 µM in data set [10]; 1.1 ± 0.2 µM in data set [11]; 0.7 ± 0.1 µM in data set [12]. For the same molecule, the IC50 in data set [13] is 1.2 ± 0.2 µM; in [14], 5.9 ± 0.3 µM; in data set [15], over 20 µM; in data set [16], 6.1 ± 0.3 µM; in data set [17] it was 1.1 ± 0.3 µM; in data set [18], over 10 µM. Besides, the IC50 is over 200 µM in data set [6] and 20 µM in [7]. Besides, the “% Drug” value in data set [8] turned out to be 67%.

In the case of `CC[C@@H](Nc1nc(NCc2cccnc2)c2ncn(C(C)C)c2n1)[C@H](C)O` [(2S3R)-3-{9-Isopropyl-6-[(pyridin-3-ylmethyl)-amino]-9H-purin-2-ylamino}-pentan-2-ol], the “A × B” value in data set [1] worked out at 3.1. For the same molecule, the IC50 in data set [2] is 4.9 µM; in data set [4] it was 1.5 µM; in data set [9] it was 2.1 ± 0.4 µM; in [10], 2.9 ± 0.2 µM; in data set [11], 2.3 ± 0.6 µM; in data set [12], 1.6 ± 0.2 µM. Also, the IC50 is 2.8 ± 0.1 µM in data set [13]; 10.2 ± 0.6 µM in data set [14]; over 20 µM in [15]; 11.2 ± 1.2 µM in data set [16]; 2.3 ± 0.5 µM in data set [17]; over 10 µM in data set [18]. The results for the IC50 in [6] and in data set [7] were over 200 µM and 23 µM, respectively. Moreover, the “% Drug” value in [8] turned out to be 90%.

On to `CC[C@@H](Nc1nc(NCc2cccnc2)c2ncn(C(C)C)c2n1)C(C)(C)O` [(3R)-3-{9-Isopropyl-6-[(pyridin-3-ylmethyl)-amino]-9H-purin-2-ylamino}-2-methyl-pentan-2-ol], for which the “A × B” value in data set [1] turned out to be 1.3. In addition, in data set [1], the “B: IC50 CDK2 roscovitine/IC50 CDK2 compound” value amounted to 0.5. Also, the IC50 in data set [1] is 0.2 µM; in data set [2], 6.2 µM; in data set [3], 3.1 µM; in data set [4] it was 5.6 µM; in data set [5], 7.5 µM; in data set [6] it was over 200 µM. In addition, the IC50 in [7] is 91 µM. Also, in data set [4], the “C: IC50 cytotox. roscovitine/IC50 cytotox. compound” value stood at 2.1. For the same molecule, the “% Drug” value in data set [8] turned out to be 84%.

For the molecule `CC[C@H](CO)Nc1nc(NCc2ccccc2)c2ncn(C(C)C)c2n1` [Roscovitine, roscovitine], the “% Drug” value in data set [19] (10 μM compound, 30 min, microsomal protein 0.2 mg, NADPH) was found to be 33%. Also, the “A: % Compound remaining/% roscovitine remaining” value in data set [19] (ratio to roscovitine) stood at 1.0.

These data come from patent US8846696B2, “Purine derivatives” (Cyclacel Limited, priority 2002, dated 2014).
